From patent US11400106B2, “Methods for inhibiting microbe growth” (priority 2018, dated 2022)
Like-named read-outs stand apart in the source and are kept apart here.

Key:
S. aureus = assay: microbe, parasite or virus in culture; conditions: for MIC: Staphylococcus aureus, 18 h, read-out: MIC, S. aureus, MHB−
Description: (§1) In the following experiments, bacterial cells were cultured in 96-well microtiter plates in cation-adjusted Mueller-Hinton Broth (MHB) for 18 h at 37° C. The main strains used were E. coli (K-12 BW25113) (placed in stationary incubator) and S. aureus (Newman Strain) (incubated at 250 r.p.m). Knockout strains (ΔtolcC and ΔychM) were used from the Keio knockout collection (Baba et al., Construction of Escherichia coli K-12 in-frame, single-gene knockout mutants: the Keio collection. Mol Syst Biol 2, 2006 0008, doi:10.1038/msb4100050 (2006)). For MIC determination and checkerboard analyses, Clinical & Laboratory Standards Institute (CLSI) protocol was used. […] DiSC3 loading of S. aureus cells was performed as previously described (Farha et al., Collapsing the proton motive force to identify synergistic combinations against Staphylococcus aureus. Chemistry & biology 20, 1168-1178, doi:10.1016/j.chembiol.2013.07.006 (2013)). CCCP concentration of 20 μM was used. pH adjustments were made by addition of HCl or NaOH. INT assay and ATP bioluminescence assays were performed as previously described (Farha et al., Collapsing the proton motive force to identify synergistic combinations against Staphylococcus aureus. Chemistry & biology 20, 1168-1178, doi:10.1016/j.chembiol.2013.07.006 (2013)). For chemical-genomic studies, the Keio library was grown overnight in cation-adjusted MHB broth, in 384-well plates. From these, treatment plates (25 mM sodium bicarbonate, or a sterile water control) were inoculated and grown for 15 hours at 37° C., in a stationary incubator. Data was normalized according to Mangat et al (Mangat et al., Rank ordering plate data facilitates data visualization and normalization in high-throughput screening. J Biomol Screen 19, 1314-1320, doi:10.1177/1087057114534298 (2014)), with gene products and GO terms mined from EcoCyc. The GFP promoter library (Keseler et al., EcoCyc: fusing model organism databases with systems biology. Nucleic Acids Res 41, D605-612, doi:10.1093/nar/gks1027 (2013)) was grown for 18 hours at ambient temperature with the same inoculation strategy as with the Keio collection. The analysis pipeline of Zaslaver et al (Zaslaver et al., A comprehensive library of fluorescent transcriptional reporters for Escherichia coli. Nat Methods 3, 623-628, doi:10.1038/nmeth895 (2006)) was used to generate maps of promoter activity, from which lists of promoters with increased or decreased activity were compiled.
(§2) Fold enhancement in MICs in the media supplemented with sodium bicarbonate is represented by a positive fold, whereas suppression of activity is represented by a negative fold.
(§3) The effect of sodium bicarbonate on the activity of additional antibacterial agents was investigated. Clinical isolates of various bacteria were obtained from the ATCC and the IHMA.
(§4) The effect of sodium bicarbonate on the activity of cationic antiseptic agents was investigated. Clinical isolates of various bacteria were obtained from the ATCC and the IHMA.

E. coli = assay: microbe, parasite or virus in culture; format: cell-based, Escherichia coli; conditions: for MIC: Escherichia coli
Description: as §1, §2, §3, §4

[1] = 18 h, MHB in the absence of sodium bicarbonate, read-out: MIC, E. coli, MHB−
[2] = 18 h, antibiotic agents, MHB in the absence of sodium bicarbonate, read-out: MIC, E. coli, MHB−
[3] = antibiotic agents, MHB in the absence of sodium bicarbonate
[4] = antibiotic agents, fold shift in MIC, MHB− vs MHB+

Structure (SMILES) | MIC, S. aureus, MHB+ (S. aureus) | MIC (S. aureus) [µg/mL] | MIC (E. coli; [1]) [µg/mL] | MIC, E. coli, MHB+ (E. coli) | MIC (E. coli; [2]) [µg/mL] | further results
CC[C@H]1OC(=O)[C@H](C)[C@@H](O[C@H]2C[C@@](C)(OC)[C@@H](O)[C@H](C)O2)[C@H](C)[C@@H](O[C@@H]2O[C@H](C)C[C@H](N(C)C)[C@H]2O)[C@](C)(O)C[C@@H](C)[C@@H]2N[C@@H](COCCOC)O[C@H]([C@H]2C)[C@]1(C)O [Dirithromycin] | 0.5 | 4 | 128 |  |  | MIC (E. coli; E. coli, no salt, pH adjusted to 7.4, read-out: MIC of dirithromycin, control): 128 µg/mL
C[C@H]1c2cccc(O)c2C(=O)C2=C(O)[C@]3(O)C(=O)C(C(N)=O)=C(O)[C@@H](N(C)C)[C@@H]3[C@@H](O)[C@@H]21 [Doxycycline] | 2 | 0.125 | 1 |  |  | 
CCn1cc(C(=O)O)c(=O)c2cc(F)c(N3CCNCC3)nc21 [Enoxacin] | 2 | 1 | 0.25 |  |  | 
O=CN(O)CCCP(=O)(O)O [Fosmidomycin] | >64 | > 64 | 16 |  |  | 
CC(=O)O[C@H]1C[C@@]2(C)[C@@H](C[C@@H](O)[C@H]3[C@@]4(C)CC[C@@H](O)[C@@H](C)[C@@H]4CC[C@@]32C)/C1=C(\CCC=C(C)C)C(=O)O [Fusidic acid] | 2 μg of antimicrobial agent/mL of buffer | 0.5 |  | >128 μg of antimicrobial agent/mL of buffer | > 128 | 
COc1c(N2CCNC(C)C2)c(F)cc2c(=O)c(C(=O)O)cn(C3CC3)c12 (stereo not shown) [Gatifloxacin] | 8 μg of antimicrobial agent/mL of buffer | 4 |  | 4 μg of antimicrobial agent/mL of buffer | 16 | 
CCCCCCCCCCCCCCCC[N+](C)(C)C.[Br-] [Hexadecyltrimethylammonium bromide] | 0.25 μg of antimicrobial agent/mL of buffer |  |  | 8 μg of antimicrobial agent/mL of buffer |  | MIC, S. aureus, MHB (S. aureus): 0.5 μg of antimicrobial agent/mL of buffer; MIC, E. coli, MHB (E. coli): 32 μg of antimicrobial agent/mL of buffer
CN[C@H]1C[C@@H](N)[C@H](O)[C@@H](O[C@@H]2O[C@H](CO)[C@H](O)[C@@H]3OC4(O[C@H]23)O[C@H]([C@@H](N)CO)[C@H](O)[C@H](O)[C@H]4O)[C@@H]1O (stereo partly shown) [Hygromycin B] |  |  |  | 16 μg of antimicrobial agent/mL of buffer |  | MIC, S. aureus, MHB− (S. aureus; [3]): >128 μg of antimicrobial agent/mL of buffer; MIC, S. aureus, MHB+ (S. aureus; antibiotic agents, MHB in the presence of 25 mM sodium bicarbonate): 64 μg of antimicrobial agent/mL of buffer; Fold, S. aureus (S. aureus; [4]): 2; MIC, E. coli, MHB− (E. coli; [3]): 32 μg of antimicrobial agent/mL of buffer; Fold, E. coli (E. coli; [4]): 2
NC[C@H]1O[C@H](O[C@H]2[C@H](O)[C@@H](O[C@H]3O[C@H](CO)[C@@H](O)[C@H](N)[C@H]3O)[C@H](N)C[C@@H]2N)[C@H](O)[C@@H](O)[C@@H]1O [Kanamycin] | 4 | 8 | 4 |  |  | 
C[C@H]1COc2c(N3CCN(C)CC3)c(F)cc3c(=O)c(C(=O)O)cn1c23 [Levofloxacin] | 1 | 0.5 | 0.0313 |  |  | 
CCC[C@@H]1C[C@@H](C(=O)N[C@@H]([C@H]2O[C@H](SC)[C@H](O)[C@@H](O)[C@H]2O)[C@@H](C)O)N(C)C1 [Lincomycin] | 0.0625 μg of antimicrobial agent/mL of buffer | 0.25 |  | 32 μg of antimicrobial agent/mL of buffer | > 128 | 
CC(=O)NC[C@H]1CN(c2ccc(N3CCOCC3)c(F)c2)C(=O)O1 [Linezolid] | 0.625 | 0.625 | 256 |  |  | effect of 25 mM sodium bicarbonate on antibacterial activity (S. aureus; S. aureus, result in words): remained largely unchanged; effect of 25 mM sodium bicarbonate on antibacterial activity (E. coli): remained largely unchanged
CCn1cc(C(=O)O)c(=O)c2cc(F)c(N3CCNC(C)C3)c(F)c21 (stereo not shown) [Lomefloxacin] | 8 μg of antimicrobial agent/mL of buffer | 4 |  | 0.125 μg of antimicrobial agent/mL of buffer | 0.5 | 
C/C(=C\C(=O)OCCCCCCCCC(=O)O)C[C@@H]1OC[C@H](C[C@@H]2O[C@H]2[C@@H](C)[C@H](C)O)[C@@H](O)[C@H]1O [Mupirocin] | 2 μg of antimicrobial agent/mL of buffer | 0.5 |  | 128 μg of antimicrobial agent/mL of buffer | 128 | 
CC1CCc2c(N3CCC(O)CC3)c(F)cc3c(=O)c(C(=O)O)cn1c23 (stereo not shown) [Nadifloxacin] | 0.5 μg of antimicrobial agent/mL of buffer | 0.12 |  | 32 μg of antimicrobial agent/mL of buffer | 8 | 
CCOc1ccc2ccccc2c1C(=O)N[C@@H]1C(=O)N2[C@@H]1SC(C)(C)[C@@H]2C(=O)O [Nafcillin] | 1 μg of antimicrobial agent/mL of buffer | 0.25 |  | 32 μg of antimicrobial agent/mL of buffer | 16 | 
CCn1cc(C(=O)O)c(=O)c2ccc(C)nc21 [Nalidixic acid] | 32 | > 8 | 2 |  |  | effect of 25 mM sodium bicarbonate on antibacterial activity (E. coli): suppressed
CCn1cc(C(=O)O)c(=O)c2cc(F)c(N3CCNCC3)cc21 [Norfloxacin] | 1 | 0.5 | 0.125 |  |  | 
Cc1onc(-c2ccccc2)c1C(=O)N[C@@H]1C(=O)N2[C@@H]1SC(C)(C)[C@@H]2C(=O)O [Oxacillin] | 1 | 0.0625 | 256 |  |  | 
NC[C@@H]1O[C@H](O[C@H]2[C@@H](O)[C@H](O[C@@H]3[C@@H](O)[C@H](N)C[C@H](N)[C@H]3O[C@H]3O[C@H](CO)[C@@H](O)[C@H](O)[C@H]3N)O[C@@H]2CO)[C@H](N)[C@@H](O)[C@@H]1O [Paromomycin] | 2 | 2 | 2 |  |  | 
CCN1CCN(C(=O)N[C@@H](C(=O)N[C@@H]2C(=O)N3[C@@H]2SC(C)(C)[C@@H]3C(=O)O)c2ccccc2)C(=O)C1=O [Piperacillin] | 1 | 0.25 | 2 |  |  | 
C=C[C@]1(C)C[C@@H](OC(=O)CO)[C@]2(C)[C@H](C)CC[C@]3(CCC(=O)[C@H]32)[C@@H](C)[C@@H]1O [Pleuromutilin] | 1 μg of antimicrobial agent/mL of buffer | 1 |  | >128 μg of antimicrobial agent/mL of buffer | > 128 | 
CC(C)C[C@H](NC(=O)[C@H](CCCNC(=N)N)NC(=O)CNC(=O)CNC(=O)[C@@H](N)CCCNC(=N)N)C(=O)N[C@H]1CSSC[C@@H](C(=O)N[C@H](C(=O)NCC(=O)N[C@@H](CCCNC(=N)N)C(N)=O)C(C)C)NC(=O)[C@H](C(C)C)NC(=O)[C@@H]2CSSC[C@H](NC(=O)[C@H](Cc3ccc(O)cc3)NC1=O)C(=O)N[C@@H](CCCNC(=N)N)C(=O)N[C@@H](CCCNC(=N)N)C(=O)N[C@@H](CCCNC(=N)N)C(=O)N[C@@H](Cc1ccccc1)C(=O)N2 [Protegrin] |  |  |  |  |  | enhancement of antimicrobial activity in the presence of bicarbonate (S. aureus; S. aureus, 25 mM sodium bicarbonate): 8 fold; enhancement of antimicrobial activity in the presence of bicarbonate (E. coli): 8 fold
CO[C@H]1/C=C/O[C@@]2(C)Oc3c(C)c(O)c4c(O)c(c(/C=N/N5CCN(C)CC5)c(O)c4c3C2=O)NC(=O)/C(C)=C\C=C\[C@H](C)[C@H](O)[C@@H](C)[C@@H](O)[C@@H](C)[C@H](OC(C)=O)[C@@H]1C [Rifampicin] | 0.031 | 0.0078 | 32 |  |  | 
C[C@@H]1CN(c2c(F)c(N)c3c(=O)c(C(=O)O)cn(C4CC4)c3c2F)C[C@H](C)N1 [Sparfloxacin] | 0.25 μg of antimicrobial agent/mL of buffer | 0.125 |  | 32 μg of antimicrobial agent/mL of buffer | 16 | 
CN[C@@H]1[C@H](O)[C@H](NC)[C@H]2O[C@@]3(O)C(=O)C[C@@H](C)O[C@H]3O[C@@H]2[C@H]1O [Spectinomycin] | 8 | 64 | 16 |  |  | 
